Laboratory results published in patent US12677825B2, “Composition for protecting islet transplantation” (LG CHEM, LTD., priority 2020, dated 2026).

How the values were obtained:
[1] = tested on: hIAPP oligomers in hIAPP+/− islets; experiment: hIAPP oligomer accumulation (A11 antibody staining) after serum-deprived culture; assay type: cell-based, mouse; conditions: 72 hours serum-deprived culture, BSA+Compound 1 vs BSA group; FIG. 6F
Procedure: Purified hIAPP^+/− FVB/N and C57BL/6J mouse were suspended in RPMI 1640 (Gibco, Grand Island, NY, USA) containing 100 IU/mL penicillin and 100 μg/mL streptomycin, and cultured at 37° C. in a fully humidified 5% CO2 atmosphere. Purified NHP islets were suspended in CMRL 1066 medium (Coming Life Sciences, Tewksbury, MA; catalog number 99-663-CV) containing 100 IU/mL penicillin and 100 μg/mL streptomycin, and cultured at 37° C. in a fully humidified 5% CO2 atmosphere. During the ex vivo culture of murine islets, three experimental groups were designated for experiments using hIAPP^+/− FVB/N and C57BL/6J mice islets: medium supplemented with 10% FBS (Tissue Culture Biologicals, Los Alamitos, CA, USA; catalog number 101; FBS group), medium supplemented with 0.625% bovine serum albumin (Qbiogene, Carlsbad, CA, USA; catalog number BSA003; BSA group), and medium supplemented with 0, 0.1, 1, 10 and 20 μM Compoun 1 plus 0.625% BSA (BSA+Compound 1 group). […]
Accumulation of hIAPP oligomers was evaluated using sections of hIAPP^+/− mice islets stained with A11 Ab (anti-oligomer antibody, Invitrogen) and insulin antibody (Dako). […] To quantify accumulation of hIAPP oligomers per islet, the proportion of A11-stained cells among total DAPI+islet cells was determined using confocal microscopy.

[2] = tested on: hIAPP+/− FVB/N mice islets; experiment: AO/PI staining viability during serum-deprived culture; assay type: cell-based, mouse; conditions: BSA culture 72 hours, with Compound 1 vs BSA alone; FIGS. 6A, 6B
Procedure: (§1) Purified hIAPP^+/− FVB/N and C57BL/6J mouse were suspended in RPMI 1640 (Gibco, Grand Island, NY, USA) containing 100 IU/mL penicillin and 100 μg/mL streptomycin, and cultured at 37° C. in a fully humidified 5% CO2 atmosphere. Purified NHP islets were suspended in CMRL 1066 medium (Coming Life Sciences, Tewksbury, MA; catalog number 99-663-CV) containing 100 IU/mL penicillin and 100 μg/mL streptomycin, and cultured at 37° C. in a fully humidified 5% CO2 atmosphere. […]
Islet viability after isolation and culture was assessed using double fluorescence in acridine orange (0.67 […]) and propidium iodide (75 […]) (AO/PI) staining to visualize the living and dead islet cells simultaneously. Fluorescent imaging was performed with a fluorescence microscope (Nikon ECLIPSE 80i, Tokyo, Japan) and live and dead areas were quantified using NIS-Element AR 3.0 (Nikon). The islet viability (%) was calculated as living islet cells/total islet cells×100.

[3] = tested on: islets from hIAPP+/− FVB/N mice; experiment: Serum-deprived culture of mouse islets (viability, ROS); assay type: cell-based; conditions: dose-dependent 0.1 μM to 20 μM
Procedure: as §1
The viability of islets was evaluated using Alamar blue staining according to the manufacturer's protocol (Invitrogen, Grand Island, NY, USA). […] The fluorescence intensity of each well was measured at 570/585 nm (excitation/emission) using a GloMax-Multi Plus Detection System (Promega, Fitchburg, WI, USA), and the values were normalized to a blank.
The oxidative stress levels in hIAPP^+/− mouse islets were determined right after islet isolation and after ex vivo culture of isolated islets. The oxidative stress of the islets was quantified using a fluorescence-based intracellular ROS detection method and by estimating the concentration of malondialdehyde (MDA), a by-product of lipid peroxidation. The formation of total ROS, superoxide ion and nitric oxide was determined using a reactive oxygen species detection kit (ENZ-51011, Enzo Life Sciences, Farmingdale, New York, USA). […]

## O=S1(=O)CCN(Cc2cc(NC3CCOCC3)c3[nH]c(-c4ccccc4)cc3c2)CC1 [Compound 1]
[1]
  proportion of accumulation of hIAPP oligomers: significantly decreased
[2]
  cell viability assessed by AO/PI staining: significantly improved
[3]; FIG. 4D
  relative cell viability: significantly increased
[3]; FIG. 4F
  serum deprivation-induced ROS: decreased
